Consider 2 compounds from publication PMC8815882, “Screening the pandemic response box identified benzimidazole carbamates, Olorofim and ravuconazole as promising drug candidates for the treatment of eumycetoma” (PLoS Neglected Tropical Diseases, 2022).

In general, MIC50 refers to the lowest concentration that inhibits either 50% of growth or 50% of the strains tested, depending on the study. In general, IC50 refers to the midpoint of a concentration-inhibition curve. A word on the IC90: it is the point of the concentration-response curve where the effect stands at 90%.

Test [1] concerns M. mycetomatis genome strain MM55. Nature of the test: CLSI M38-A2 based in vitro susceptibility screening (XTT or resazurin), growth at fixed concentration. It counts as cell-based, Madurella mycetomatis. The note with it: Madurella mycetomatis. Background: Tetrazolium assays rely on reduction of a dye to a coloured formazan, in cell work by metabolically active cells.
For test [2], the system named is ten different M. mycetomatis isolates. Further details: method as in PMID 24945848, PMID 22964246, PMID 31904836. The following applies: asterisk: determined in previous works ref 19-21; cited from earlier work.
Test [3] deals with M. mycetomatis isolate MM55. Kind of test: M. mycetomatis grain infection model in G. mellonella larvae, survival. It counts as in vivo, Galleria mellonella. More on the design: In vivo efficacy, Larvae survival %: concentration or dose not given beside the values.
The test system of test [4] is Me. romeroi strain CBS128765. Nature of the test: CLSI M38-A2 based in vitro susceptibility screening at 25 μM. It is filed as cell-based, Medicopsis romeroi. The note with it: selected if >75% (resazurin) or >80% (XTT) fungal growth inhibited. Background: The colour change of resazurin is a common sign of viable cells or microbes.
The subject of test [5] is F. senegalensis strain CBS132257. The description is as above. It is filed as cell-based, Falciformispora senegalensis. The note with it: selected if >75% (resazurin) or >80% (XTT) fungal growth inhibited.
The test system of a further test is M. mycetomatis MM55. Nature of the test: IC50 determination, 2-fold dilution series 16 to 0.03125 μM. It counts as cell-based, Madurella mycetomatis. The following applies: for IC50 / IC90: Madurella mycetomatis.
The mark [6] stands for this setting: mean, read-out: Percentage survival at 25um, 25 uM mean.
The mark [7] stands for this setting: replicate A, read-out: Percentage survival at 25um, 25 um A.
[8] abbreviates: replicate B, read-out: Percentage survival at 25um, 25 uM B.
[9] abbreviates: replicate C, read-out: Percentage survival at 25um, 25 uM C.
The mark [10] stands for this setting: mean, read-out: Percentage survival at 100um, 100 uM mean.
Where [11] appears, read: replicate (first column), read-out: Percentage survival at 100um, 100 uM A.
Where [12] appears, read: replicate (second column), read-out: Percentage survival at 100um, 100 uM A.
[13] abbreviates: replicate (third column), read-out: Percentage survival at 100um, 100 uM A.
The mark [14] stands for this setting: MM55, Table 2, M. mycetomatis MM55, read-out: IC50.
Where [15] appears, read: MM55, replicate 1, read-out: IC50 1.
The mark [16] stands for this setting: MM55, replicate 1, read-out: IC90 1.
[17] abbreviates: MM55, replicate 2, read-out: IC50 2.
Where [18] appears, read: MM55, replicate 2, read-out: IC90 2.
The mark [19] stands for this setting: MM55, replicate 3, read-out: IC50 3.
Setting [20] is: MM55, replicate 3, read-out: IC90 3.

Each structure is given as a SMILES string. In brackets after ≈: the same amount, converted by molar mass. Read-outs that look alike come from different tables or passages of the source. Bounds are passed on as bounds.

As to `C[C@@H](c1nc(-c2ccc(C#N)cc2)cs1)[C@](O)(Cn1cncn1)c1ccc(F)cc1F` [MMV1634362, Ravuconazole], the activity at 25 µM was -1.1% in test [1] (setting [6]), -3.16% in test [1] (setting [7]), -3.36% in test [1] (setting [8]) and 3.22% in test [1] (setting [9]). The activity at 100 µM in test [1] (setting [10]) is 4.1%; in test [1] (setting [11]), -3.18%; in test [1] (setting [12]), 5.51%; in test [1] (setting [13]), 9.97%. For the same compound, the “MIC50” value in test [2] was 0.01 µM (≈ 0.00437 µg/mL). Further, the “MIC range” value in test [2] is 0.004 to 0.06 µM. Besides, in test [3] (20 μM per larvae at 4, 28, 52 h after infection, day ten), the “Larvae survival rate on day ten” value was found to be 26.7%. Also, the “Effect on larvae survival Day 4 (words)” value in test [3] (20 μM per larvae, vs infected control, day four) is “prolonged larvae survival”. Further, in test [3] (20 μM per larvae, vs infected control, day ten), the “Effect on larvae survival Day 10 (words)” value is given as “able to prolong larvae survival”. In addition, in test [3] (in vivo), the “In vivo efficacy, Enhanced survival compared to control?” value is “yes *”. Moreover, the “In vivo efficacy, Larvae survival %” value in test [3] (in vivo) is 26.7%. Moreover, in test [4], the “Inhibits growth of Medicopsis romeroi at 25 μM” value is “neither F. senegalensis nor Me. romeroi growth were inhibited”. In addition, in test [5], the “Inhibits growth of Falciformispora senegalensis at 25 μM” value is recorded as “neither F. senegalensis nor Me. romeroi growth were inhibited”. Moreover, the “Drug static or cidal” value with M. mycetomatis MM55 is reported as “Cidal”. Also, the IC50 in the test with M. mycetomatis MM55 (setting [14]) is 10 nM; in the test on M. mycetomatis MM55 (MM55, mean, read-out: IC50 mean), under 98 nM; in the test with M. mycetomatis MM55 (setting [15]) it was under 98 nM; with M. mycetomatis MM55 (setting [17]), 1040 nM; in the test with M. mycetomatis MM55 (setting [19]) it was under 98 nM. The IC90 with M. mycetomatis MM55 (setting [16]) is under 98 nM; in the test with M. mycetomatis MM55 (setting [18]) it was 4000 nM; with M. mycetomatis MM55 (setting [20]), 2750 nM.
Turning to `CC(=O)N1CCN(c2ccc(OCC3COC(Cn4ccnc4)(c4ccc(Cl)cc4Cl)O3)cc2)CC1` (centres unmarked) [MMV637533, Ketoconazole, reference compound], the activity at 25 µM in test [1] (setting [6]) was -0.0796%; in test [1] (setting [7]), 1.08%; in test [1] (setting [8]), -3.63%; in test [1] (setting [9]) it was 2.31%. In addition, the activity at 100 µM turned out to be 5.46% in test [1] (setting [10]), 1.43% in test [1] (setting [11]), 7.48% in test [1] (setting [12]) and 7.47% in test [1] (setting [13]). Besides, in test [2], the “MIC50” value was 0.13 µM (≈ 0.0691 µg/mL). Also, in test [2], the “MIC range” value was 0.06 to 1.9 µM. Also, in the test on M. mycetomatis MM55, the “Drug static or cidal” value is on record as “Cidal”. Also, the IC50 with M. mycetomatis MM55 (setting [14]) was 70 nM; with M. mycetomatis MM55 (setting [15]), under 98 nM; with M. mycetomatis MM55 (setting [17]), under 98 nM; with M. mycetomatis MM55 (setting [19]), 380 nM. In addition, the IC90 in the test on M. mycetomatis MM55 (setting [16]) is 180 nM; in the test on M. mycetomatis MM55 (setting [18]), under 98 nM; with M. mycetomatis MM55 (setting [20]), 1050 nM.
